Reference: PubChem BioAssay (NCI)
“And” between values parts separate entries of the source, which are not always exact repeats. Equal values may be shown once.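 Method: 48-hour compound exposure of cells in 96-well plates, five concentrations, linear interpolation of endpoints. The concentration for 50% growth inhibition is given as GI50. TGI denotes the concentration required for complete inhibition of growth.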

How the values were obtained:
Assay in all cases: NCI tumour cell line growth inhibition, 48 h
[1] = tested on: SF-295 CNS
[2] = tested on: ACHN renal
[3] = tested on: HOP-62 NSCLC
[4] = tested on: HL-60(TB) leukemia
[5] = tested on: RXF 393 renal
[6] = tested on: OVCAR-5 ovarian

SMILES | TGI [1] | TGI [2] | TGI [3] | TGI [4] | TGI [5] | TGI [6] | GI50 [1] | GI50 [2] | GI50 [3] | GI50 [6]
O=S1(=O)N=C(SCc2ccccc2)N(c2ccccc2)c2ccncc21 | > 100 µM | > 100 µM | > 100 µM | > 100 µM | > 100 µM | > 100 µM |  |  |  | 
O=C(Nc1ccc(Cl)cc1)NS(=O)(=O)c1coc2cc(F)ccc2c1=O | > 100 µM | > 100 µM | > 100 µM |  | > 100 µM | > 100 µM |  |  |  | 
O=c1oc2ccc3ccccc3c2cc1-c1cn2ccccc2n1 | > 100 µM | 94.2 µM | > 100 µM | > 100 µM | > 100 µM |  |  |  |  | 
C(=C\c1cccs1)/c1cccc(/C=C/c2cccs2)n1 | > 100 µM | 38.9 µM | > 100 µM | > 100 µM | > 100 µM | > 100 µM |  |  |  | 
COc1ccc2[nH]cc(CCNC(=O)[C@H](Cc3ccccc3)NC(=O)[C@@H](NCC(F)(F)F)C(C)C)c2c1 | 25.2 µM | 67.7 µM | 36.2 µM | 46.2 µM | 36.1 µM | 34.8 µM |  |  |  | 
CNC1=C(C)C(=O)C(=O)C([C@H](C)CCC=C(C)C)=C1O | > 75.7 µM | 39.4 µM | > 31.6 µM | 6.88 µM | > 100 µM | > 100 µM |  |  |  | 
OC1(c2cccs2)c2cccc(Cl)c2C(O)(c2cccs2)c2c(Cl)cccc21 (stereo not drawn) | > 100 µM | > 100 µM | > 100 µM | > 100 µM | > 100 µM | > 100 µM |  |  |  | 
O=C1NC2ON=C(c3ccccc3)C2C2ON=C(c3ccccc3)N12 (stereo not drawn) | > 100 µM | > 100 µM | > 100 µM |  | > 100 µM | > 100 µM |  |  |  | 
Clc1ccc(NCc2nnc(CCCCCCCCc3nnc(CNc4ccc(Cl)cc4)o3)o2)cc1 | > 100 µM | > 100 µM | > 100 µM |  | > 100 µM | > 100 µM |  |  |  | 
CN(C)Nc1cc(=O)[nH]c(=O)[nH]1 | > 100 µM | > 100 µM | > 100 µM | > 100 µM | > 100 µM | > 100 µM |  |  |  | 
Cn1c2ccccc2c2c(-c3ccccc3)cc3c(c21)C(=O)C=CC3=O | > 10 µM | 3.04 µM | > 10 µM | 1.1 µM | 3.83 µM | > 10 µM |  |  |  | 
C=CCN1C(=O)C=C(c2ccccc2)n2ncc3cccc1c32 | > 100 µM | > 100 µM | > 100 µM | > 100 µM |  | > 100 µM |  |  |  | 
O=C1CCC2C(O)c3cc4c(cc3C(c3ccc5c(c3)OCO5)N12)OCO4 (stereo not drawn) | > 100 µM | > 100 µM | 63.7 µM | > 100 µM |  | > 100 µM |  |  |  | 
N#Cc1c(-c2ccccc2)cc(-c2ccccc2)n(C2OC(CO)C(O)C(O)C2O)c1=S (stereo not drawn) | 44.4 µM and > 100 µM | > 100 µM | > 100 µM | > 100 µM | > 100 µM | > 100 µM | 19.5 µM and 41.1 µM | 30.7 µM and 66.6 µM | 34.3 µM and 72.8 µM | 35.8 µM and > 100 µM
COC1=C(OC)C(=O)C(Cc2c(Cl)nc3sc(C)cn23)=C(C)C1=O | 32.1 µM | 40 µM | 36 µM |  | 41.7 µM | 35.9 µM |  |  |  | 
CS(=O)(=O)c1nc(-c2cc3c(c(S(C)(=O)=O)n2)CCC3)cc2c1CCCCC2 | > 100 µM | > 100 µM | 84.8 µM | > 100 µM | 39.3 µM | > 100 µM |  |  |  | 

SMILES | TGI [1] | TGI [2] | TGI [3] | TGI [4] | TGI [5] | TGI [6] | GI50 [1] | GI50 [2] | GI50 [3] | GI50 [6]
Cc1cc(=O)[nH]c(-n2[nH]c(C)c(CCO)c2=O)n1 | > 100 µM | > 100 µM | > 100 µM | > 100 µM | > 100 µM | > 100 µM |  |  |  | 
O=C1/C(=C/c2cccc(Br)c2)CCc2ccccc21 | 28.5 µM | 27.7 µM | 30.1 µM | 28.3 µM |  | 28.3 µM |  |  |  | 
C=CCN1C(=O)/C(=C/c2ccc(OC)cc2)N=C1SC/C=C/C | > 100 µM | > 100 µM | > 100 µM | 54.4 µM | 87 µM | > 100 µM |  |  |  | 
Cc1ccc2c(c1)[nH]c(=S)n2/C=C1\C(=O)Oc2ccccc2C1=O | > 100 µM | > 100 µM | > 100 µM | > 100 µM | > 100 µM | > 100 µM |  |  |  | 
O=c1c2c(oc3ccccc13)-c1ccccc1OC2 | > 100 µM | > 100 µM | > 100 µM |  |  | > 100 µM |  |  |  | 
O=C(NC1=NCC(CN2CCN(c3ccccc3)CC2)O1)Nc1ccccc1 (stereo not drawn) | > 100 µM | > 100 µM | > 100 µM | > 100 µM | > 100 µM | > 100 µM |  |  |  | 
O=C1c2cc(Cl)ccc2-n2cnnc2C2CSCN12 (stereo not drawn) | > 100 µM | > 100 µM | > 100 µM |  | > 100 µM | > 100 µM |  |  |  | 
CNc1ncnc2c1ncn2C1C=CC(COS(N)(=O)=O)C1 (stereo not drawn) | > 100 µM | > 100 µM | > 100 µM | > 100 µM | > 100 µM |  |  |  |  | 
CCc1c2c([nH]c(=S)c1C#N)CCC2 | > 100 µM | > 100 µM | > 100 µM | > 100 µM | > 100 µM | > 100 µM |  |  |  | 
CC1C2(C)OC(=N)C(C#N)(C(c3ccccc3)O2)C1(C#N)C#N (stereo not drawn) | > 100 µM | > 100 µM |  | 40.1 µM | 87.5 µM | 69.5 µM |  |  |  | 
COC(=O)[C@@H]1CN(C(C)=O)C(=O)N1 | > 100 µM | > 100 µM | > 100 µM | > 100 µM | > 100 µM | > 100 µM |  |  |  | 
O=C1CCCCC/C1=C\c1cccc(Cl)c1 | 50.2 µM | > 100 µM | > 100 µM |  |  | > 100 µM |  |  |  | 
CC(=O)NC1C(OCc2ccccc2)OC(CO)C(O)C1OC(C)C(=O)NC(C(=O)N[C@@H](CCC(=O)NCCNCCNc1c2ccccc2nc2cccc([N+](=O)[O-])c12)C(N)=O)C(C)C (stereo partly drawn) | > 100 µM | 73.5 µM | > 100 µM | > 100 µM |  |  |  |  |  | 
C1=NCCN2CCN(CCN=Cc3ccc(cc3)OCc3cccc(n3)COc3ccc1cc3)CC2 | > 50 µM | > 50 µM | > 50 µM | > 50 µM | > 50 µM | > 50 µM |  |  |  | 
O=C1/C(=C/c2ccccc2O)N=C(c2ccccc2)N1C1Nc2cc3c(cc2S1)NC(N1C(=O)/C(=C/c2ccccc2O)N=C1c1ccccc1)S3 (stereo not drawn) | > 100 µM | > 100 µM | > 100 µM | > 100 µM | 70 µM | > 100 µM |  |  |  | 
